Reference: patent US9284281B2, “Indication of naphtho[2,3-F]quinoxaline-7,12-dione compound in alleviating pain” (NATIONAL CENTRAL UNIVERSITY, priority 2014, dated 2016)

Assays:
Type in all cases: in vivo
CD-1 mice [1] = test: Neuropathic pain: chronic constriction injury (CCI) of the sciatic nerve, mechanical hyperalgesia by von Frey filaments; conditions: for paw withdrawal threshold (PWT): one week after CCI
Text: The assessment of the effectiveness of the compound for alleviating neuropathic pain used the animal model of chronic constriction injury (CCI) of the sciatic nerve, which was established by Bennett and Xie (1988). After the surgery, the mice developed long-lasting hypersensitivity to mechanical stimuli (chronic mechanical hyperalgesia), even being lightly touched. The mechanical hyperalgesia test was used to evaluate the analgesic effect of the compound.
The mice, after a week following the surgery, were intraplantarly injected with a series of different dosages of the naphtho[2,3-f]quinoxaline-7,12-dione compound, […], or the mice were injected with 2.2 μg/kg of compound intrathecally, or with 43 μg/kg of the compound intraperitoneally. The hypersensitivity to mechanical stimuli was measured using von Frey filaments at 60 minutes after the injection. The mice injected with saline following surgery were the control group and the other mice injected with gabapentin following surgery were the positive control group.
(§1) 2.2 μg/kg of the compound was administered to the mice by intraplantar injection about 5 minutes prior to the injection of the acid solution. An hour after the injection of the acid, the hypersensitivity of the mice to mechanical stimuli was measured using von Frey filaments (Touch-Test North Coast Medical, Inc., Margan Hill, Calif.). The mice were placed in transparent plastic chambers (10×8×10 cm) on a metal mesh floor at least 30 minutes per day for 2 days to acclimatize them to the testing room prior to the test. 60 minutes after the mice were administered with the compound, the mechanical hyperalgesia was assessed through the measurement of paw withdrawal frequencies by a sequential series of von Frey filaments of weights 0.6, 1.0, 1.4, 2.0 and 4.0 g applied perpendicularly to the plantar surface of the paw. The paw was briefly stimulated with force sufficient to slightly bend the filaments and a single trial consisted of repeated applications of the von Frey filaments five times, each application lasting for about 5 seconds. The occurrence of paw withdrawal resulting from the stimulation or removing the stimulation for each trial was quantified as a percentage response frequency for each filament. When the frequency was more than 50%, the weight of the von Frey filaments was determined as the paw withdrawal threshold (PWT). To make sure all the mice were under normal physical conditions, all housing conditions complied with general feeding standards, and the temperature and illumination were maintained in a suitable range.
According to the method described by Bennett and Xie, Pain, 1988, 33, 87-107, 8 to 12-week-old CD-1 mice were subjected to the chronic constriction injury (CCI) of the sciatic nerve, which is an animal model inducing chronic neuropathic pain. To anesthetize the mice, each of the mice was injected with 240 mg/kg of 2,2,2-tribromoethanol (Avertin). Then three ligatures were loosely tied around the sciatic nerve of the mouse with chromic gut. The surgical procedure for the Sham (non ligation) control group was identical to that mentioned above except that the sciatic nerves were not ligated. A week after the mice in the experimental (CCI+compound) group had chronic constriction injury of sciatic nerves, the compound was intraplantarly, intrathecally, or intraperitoneally injected into the mice. 60 minutes after the injection, the mice were directly subjected to the hypersensitivity test to mechanical stimuli. The mice under the surgery treated with saline were the CCI group; the mice treated with gabapentin were the positive control (CCI+Gabapentin) group.

mice = test: Inflammatory pain: chronic inflammatory pain induced by Complete Freund's Adjuvant (CFA), mechanical hyperalgesia by von Frey filaments
Procedure: When 50% CFA was intraplantarly injected into the mouse, paw edema and chronic mechanical hyperalgesia were developed in the tested mice. Different dosages of the naphtho[2,3-f]quinoxaline-7,12-dione compound, 0.22, 2.2, 22 μg/kg were intraplantarly injected into mouse hindpaw, followed by 50% CFA injection. At 60 minutes after the CFA injection, the hypersensitivity of the mice to mechanical stimuli was measured using von Frey filaments.
as §1
To induce paw edema and chronic inflammatory pain, 25 μL of 50% Complete Freund's Adjuvant (CFA) in saline was intraplantarly injected into the right hind paw of the mouse. […] 60 minutes after the CFA injection, the hypersensitivity to mechanical stimuli was measured using von Frey filaments.

CD-1 mice [2] = test: Nociceptive pain: acute pain induced by pH 5.0 acid solution, mechanical hyperalgesia by von Frey filaments; conditions: for paw withdrawal threshold (PWT): control 4.0±0 g; for effective dosage: intraplantar, acute pain induced by acid solution
Procedure: Naphtho[2,3-f]quinoxaline-7,12-dione compound was intraplantarly injected into the right hind paws of 8 to 12-week-old CD-1 mice. 5 minutes after the injection, 25 μL of pH 5.0 acid solution was intraplantarly injected into each of the mice. About 60 minutes later, the mice were directly tested with the hypersensitivity to mechanical stimuli using von Frey filaments (Touch-Test North Coast Medical, Inc., Margan Hill, Calif.). The control group was conducted under the same conditions except it was treated with a compound-free saline. The results are shown in FIG. 1, where the injection of 25 μL of the pH 5.0 acid solution induced mechanical hyperalgesia in the right hind paw of the mice, and the paw withdrawal threshold (PWT) of these mice was 1.1±0.065 g. By injecting 2.2 μg/kg of the naphtho[2,3-f]quinoxaline-7,12-dione (NSC745887, D1) compound intraplantarly into the right hind paws of the mice, the paw withdrawal threshold of those mice recovered to 4.0±0 g (PWT of control group mice was 4.0±0 g).
25 μL of acid solution with a pH of 5.0 was injected into 8 to 12-week-old CD-1 mice in order to induce mechanical hyperalgesia. Mice injected with saline were the control group; the ones that were injected with compound only were compound group; the ones that were injected with only the acid solution were the acid group and those injected with both compound and the acid solution were the acid+compound group.
The above-mentioned 1 M of pH 5.0 solution was prepared by dissolving 1.952 g of 2-(N-morpholino)ethanesulfonic acid (MES) in 10 mL of sterilized secondary water. The pH of the solution was adjusted to 5.0 using 1N NaOH solution. Before injection, pH5.0 was diluted with saline into 10 mM.
as §1

[3] = 2.2 μg/kg intraplantar once every week for three weeks, FIG. 3

Cc1nc2ccc3c(c2nc1C)C(=O)c1ccccc1C3=O [C3, 2,3-dimethylnaphtho[2,3-f]quinoxaline-7,12-dione]
paw withdrawal threshold (PWT) (CD-1 mice [1]; 24 μg/kg intraplantar, FIG. 2B): 1.4 g
paw withdrawal threshold (PWT) (mice; 24 μg/kg intraplantar before CFA, FIG. 4B): 1.4 g
paw withdrawal threshold (PWT) (CD-1 mice [2]; 24 μg/kg intraplantar, then pH 5.0 acid solution, FIG. 1B): 2.0 ± 0 g
effective dosage (CD-1 mice [2]): 24 µg/kg

O=C1c2ccccc2C(=O)c2c1ccc1nccnc21 [D1, naphtho[2,3-f]quinoxaline-7,12-dione]
tolerance to the compound (CD-1 mice [1]; 2.2 μg/kg intraplantar once every week for three weeks): no obvious indication that the mice developed tolerance
paw withdrawal threshold (PWT), first week (CD-1 mice [1]; [3]): 3.3 ± 0.67 g
paw withdrawal threshold (PWT), second week (CD-1 mice [1]; [3]): 3.3 ± 0.67 g
paw withdrawal threshold (PWT), third week (CD-1 mice [1]; [3]): 3.0 ± 0.1 g
paw withdrawal threshold (PWT) (CD-1 mice [1]; 2.2 μg/kg intraplantar, 60 min after injection, FIG. 2A, CCI 0.9±0.23 g, control 3.6±0.29 g): 3.3 ± 0.67 g
paw withdrawal threshold (PWT) (CD-1 mice [1]; 2.2 μg/kg intraplantar, FIG. 2B, CCI 0.9±0.23 g): 2.0 ± 0 g
paw withdrawal threshold (PWT) (CD-1 mice [1]; 2.2 μg/kg intrathecal, FIG. 2A): 2.0 g
paw withdrawal threshold (PWT) (CD-1 mice [1]; 22 μg/kg intraplantar, FIG. 2A): 3.3 ± 0.67 g
inhibition of mechanical hyperalgesia induced by CCI (CD-1 mice [1]; 43 μg/kg intraperitoneal): completely inhibited mechanical hyperalgesia
paw withdrawal threshold (PWT) (mice; 2.2 μg/kg intraplantar before 50% CFA, 60 min after CFA, FIG. 4A, CFA 0.4±0.033 g, control 3.8±0.171 g): 1.1 ± 0.15 g
paw withdrawal threshold (PWT) (mice; 22 μg/kg intraplantar before 50% CFA, FIG. 4A): 2.0 ± 0.411 g
paw withdrawal threshold (PWT) (mice; 22 μg/kg intraplantar before CFA, FIG. 4B, control 3.8±0.171 g): 2.3 g
paw withdrawal threshold (PWT) (CD-1 mice [2]; 2.2 μg/kg intraplantar, 5 min before pH 5.0 acid solution, about 60 min later, acid only 1.1±0.065 g): 4.0 ± 0 g
effective dosage (CD-1 mice [2]): 2.2 µg/kg
paw withdrawal threshold (PWT), compound without acid solution (CD-1 mice [2]; sole injection of the compound without the acid solution, did not induce pain): 4.0 ± 0 g

O=C1c2ccccc2C(=O)c2c1ccc1[nH]c(=O)c(=O)[nH]c21 [D2, naphtho[2,3-f]quinoxaline-2,3,7,12(1H,4H)-tetraone]
paw withdrawal threshold (PWT) (CD-1 mice [1]; 24.3 μg/kg intraplantar, FIG. 2B): 2.0 ± 0 g
paw withdrawal threshold (PWT) (mice; 24.3 μg/kg intraplantar before CFA, FIG. 4B): 1.0 g
paw withdrawal threshold (PWT) (CD-1 mice [2]; 24.3 μg/kg intraplantar, then pH 5.0 acid solution, FIG. 1C): 4.0 ± 0 g
effective dosage (CD-1 mice [2]): 24.3 µg/kg

NCC1(CC(=O)O)CCCCC1 [gabapentin, reference compound]
dose required to inhibit chronic mechanical hyperalgesia caused by CCI (CD-1 mice [1]; intraperitoneal injection): at least 15,000 μg/kg
